Measured values as given in PMC10812672, “Short Antimicrobial Peptide Derived from the Venom Gland Transcriptome of Pamphobeteus verdolaga Increases Gentamicin Susceptibility of Multidrug-Resistant Klebsiella pneumoniae” (Antibiotics, 2023).
Where two headings read alike, the source gives them in different places. Ends that are not written are not given here.

What was measured:
[1] = system: MDR K. pneumoniae; assay: Isobologram analysis and FICI, PvAMP66 with gentamicin; format: cell-based, Klebsiella pneumoniae
Method: Given the intermediate resistance to gentamicin, an isobologram analysis was used as a proof-of-concept to evaluate the interaction between PvAMP66 and the antibiotic. The growth inhibition of the clinical isolate was measured using peptide concentrations of 0.10–100 µM, and gentamicin concentrations of 0.10–50 µM (Supplementary Figure S10). Combined IC50 values were calculated and plotted in a graph with a secant line representing the IC50 values for PvAMP66 and gentamicin when used alone (Figure 2a). […] The concentrations adjacent to the aforementioned data point were evaluated. […] Additionally, a Fractional Inhibitory Concentration Index (FICI) of 0.59 was obtained.
For the isobologram analysis concentrations, ranges of 1.56 µM to 200 µM of the peptide and 0.07 µM to 100 µM of the gentamicin were used. The experiments were conducted in triplicate and repeated in two independent assays. The IC50 for each combination was determined using either logarithmic or linear regression. Then, when achieving 50% growth inhibition, the concentrations of the peptide and gentamicin were recorded and used to create an isobologram graph with a ‘peptide concentration’ vs. ‘gentamicin concentration’ plot. […] The fractional inhibitory concentration index was calculated as follows: FICI=Combined MICAntibiotic/MICAntibiotic+Combined MICPeptide/MICPeptide

[2] = system: multidrug-resistant (MDR) strain of K. pneumoniae, clinical isolate; assay: microbe, parasite or virus in culture; format: cell-based, Klebsiella pneumoniae
Method: A multidrug-resistant (MDR) strain of K. pneumoniae was identified and isolated from a tertiary-level hospital in Medellin, Colombia, using the VITEK-2 system (bioMérieux, Marcy-l’Étoile, France). The MDR strain was evaluated against several antibiotics at concentrations of 1.56–100 μM. […] In contrast, the strain was susceptible to doxycycline (Supplementary Figure S7g) and chloramphenicol (Supplementary Figure S7h), with MICs of 50 μM and 100 µM, respectively (Table 3). […] All of P. verdolaga’s AMPs were evaluated against the clinical isolate at concentrations of 1.56–200 µM (Supplementary Figure S8). […] A growth inhibition kinetic assay was conducted. […] All of P. verdolaga’s peptides at 100 μM induced morphological changes in the MDR K. pneumoniae, indicating membrane interactions, even though no significant inhibition was observed (Supplementary Figure S9).
The evaluation of the antimicrobial activity of the peptides was conducted using the CLSI’s broth microdilution method for bacterial susceptibility testing. For the screening phase, peptides were evaluated at a single 30 μM concentration, in triplicate and in three independent assays, against the E. coli ATCC® 8739, E. coli ATCC® 25922, S. aureus ATCC® 6538, or S. aureus ATCC® 29213 reference USP and CLSI strains. For the determination of MIC, MBC, or IC50, peptides or antibiotics were evaluated in concentrations between 1.56–200 µM. These evaluations were conducted in triplicate and in three independent assays, against the E. coli ATCC® 25922, S. aureus ATCC® 29213, E. faecalis ATCC® 49532, P. aeruginosa ATCC® 9027, and K. pneumoniae ATCC® BAA-1705, or the clinically isolated MDR strain. In detail, 1 mL of a glycerol stock solution of the ATCC® or clinically isolated bacterial strain was added to 9 mL of Mueller-Hinton Broth and incubated for 18 h, 180 rpm and 37 °C (Incubator 1000, Heidolph Instruments, Schwabach, Germany). After the incubation, 1 mL of the previous solution was transferred to a new recipient containing 9 mL of fresh Mueller-Hinton broth and incubated for 4 h, 180 rpm and 37 °C (Incubator 1000, Heidolph Instruments, Schwabach, Germany). During the second incubation, the peptides or the antibiotics were dissolved in PBS pH 7.20 in concentrations between 19.53–2500 µM (MC5 Micro Balance, Sartorius AG, Göttingen, Germany). An amount of 10 µL of either peptide or antibiotic was dispensed in triplicate in 96-well flat bottom culture plates, along with 10 µL of PBS (Negative activity control), BTM-P1 (Positive activity control), or 10 µL of Mueller-Hinton broth (Blank); then, 110 µL of Mueller-Hinton broth was poured in all wells. Following this, the bacteria were suspended in Mueller-Hinton broth up to a concentration of approximately 1.50 × 10^8 CFU/mL, as measured by optical density at 600 nm between 0.06 to 0.11 (0.5 McFarland standard), in a Multiskan SkyHigh spectrophotometer (ThermoFisher Scientific, Waltham, MA, USA). Amounts of 5 µL of the 1.50 × 10^8 CFU/mL suspension were added to each well (except for the blank) for a final well concentration of approximately 6 × 10^6 CFU/mL. The plate was incubated for 24 h at 37 °C (BE 500, Memmert GmbH, Büchenbach, Germany) and optical density was measured at 600 nm in a Multiskan SkyHigh spectrophotometer (ThermoFisher Scientific, Waltham, MI, USA). Following the measurement of optical density, plates were visually inspected to determine the MIC. Subsequently, 100 µL of the concentration associated to the MIC and 100 µL of the next higher concentration were added to Petri dishes containing Mueller-Hinton Agar. The dishes were then incubated for 24 h at 37 °C (BE 500, Memmert GmbH, Büchenbach, Germany). After incubation, the Petri dishes were visually inspected, and the MBC was determined in the absence of growth. IC50 values were interpolated from regressions with correlation values above 0.70. […]

[3] = system: E. coli ATCC® 25922; format: cell-based, Escherichia coli; details: for MIC: 1.56–200 µM, visual inspection, triplicate, three independent assays; for MIC / MBC: 24 h 37 °C; for MBC: plating on Mueller-Hinton agar, absence of growth
Method: (§1) The nine AMPs identified in the initial screening were evaluated at concentrations between 1.56–200 µM, against E. coli ATCC® 25922, S. aureus ATCC® 29213, E. faecalis ATCC® 49532, P. aeruginosa ATCC® 9027, and K. pneumoniae ATCC® BAA-1705 (Supplementary Figures S2–S6). […] Only PvAMP66 and PvAMP172 reached the MBC for S. aureus at 50 µM and 100 µM, respectively (Table 2).
(§2) The evaluation of the antimicrobial activity of the peptides was conducted using the CLSI’s broth microdilution method for bacterial susceptibility testing. For the screening phase, peptides were evaluated at a single 30 μM concentration, in triplicate and in three independent assays, against the E. coli ATCC® 8739, E. coli ATCC® 25922, S. aureus ATCC® 6538, or S. aureus ATCC® 29213 reference USP and CLSI strains. For the determination of MIC, MBC, or IC50, peptides or antibiotics were evaluated in concentrations between 1.56–200 µM. These evaluations were conducted in triplicate and in three independent assays, against the E. coli ATCC® 25922, S. aureus ATCC® 29213, E. faecalis ATCC® 49532, P. aeruginosa ATCC® 9027, and K. pneumoniae ATCC® BAA-1705, or the clinically isolated MDR strain. In detail, 1 mL of a glycerol stock solution of the ATCC® or clinically isolated bacterial strain was added to 9 mL of Mueller-Hinton Broth and incubated for 18 h, 180 rpm and 37 °C (Incubator 1000, Heidolph Instruments, Schwabach, Germany). After the incubation, 1 mL of the previous solution was transferred to a new recipient containing 9 mL of fresh Mueller-Hinton broth and incubated for 4 h, 180 rpm and 37 °C (Incubator 1000, Heidolph Instruments, Schwabach, Germany). During the second incubation, the peptides or the antibiotics were dissolved in PBS pH 7.20 in concentrations between 19.53–2500 µM (MC5 Micro Balance, Sartorius AG, Göttingen, Germany). An amount of 10 µL of either peptide or antibiotic was dispensed in triplicate in 96-well flat bottom culture plates, along with 10 µL of PBS (Negative activity control), BTM-P1 (Positive activity control), or 10 µL of Mueller-Hinton broth (Blank); then, 110 µL of Mueller-Hinton broth was poured in all wells. Following this, the bacteria were suspended in Mueller-Hinton broth up to a concentration of approximately 1.50 × 10^8 CFU/mL, as measured by optical density at 600 nm between 0.06 to 0.11 (0.5 McFarland standard), in a Multiskan SkyHigh spectrophotometer (ThermoFisher Scientific, Waltham, MA, USA). Amounts of 5 µL of the 1.50 × 10^8 CFU/mL suspension were added to each well (except for the blank) for a final well concentration of approximately 6 × 10^6 CFU/mL. The plate was incubated for 24 h at 37 °C (BE 500, Memmert GmbH, Büchenbach, Germany) and optical density was measured at 600 nm in a Multiskan SkyHigh spectrophotometer (ThermoFisher Scientific, Waltham, MI, USA). Following the measurement of optical density, plates were visually inspected to determine the MIC. Subsequently, 100 µL of the concentration associated to the MIC and 100 µL of the next higher concentration were added to Petri dishes containing Mueller-Hinton Agar. The dishes were then incubated for 24 h at 37 °C (BE 500, Memmert GmbH, Büchenbach, Germany). After incubation, the Petri dishes were visually inspected, and the MBC was determined in the absence of growth. IC50 values were interpolated from regressions with correlation values above 0.70. Growth inhibition percentages were calculated as follows: Growth inhibition %=1−AbsPEPTIDE or ANTIBIOTIC−Median AbsBLANK/Median AbsPBS−Median AbsBLANK×100

[4] = system: E. coli ATCC® 25922; format: cell-based, Escherichia coli; details: CLSI broth microdilution, Mueller-Hinton broth, peptide 30 µM, ~6 × 10^6 CFU/mL, 24 h 37 °C, OD600; triplicate, three independent assays; NA = no activity
Method: (§3) Activity screening was conducted using the broth microdilution method at a fixed peptide concentration of 30 µM against E. coli ATCC® 8739 and 25922, as well as S. aureus ATCC® 6538 and 29213. The bacterial density used for screening was approximately 6 × 10^6 CFU/mL [30]. Peptide activity measurements were conducted in terms of the growth inhibition percentage. No dose-response curves were generated during the screening phase as a resource optimization strategy in the initial activity evaluation. […] For S. aureus ATCC® 6538 and S. aureus ATCC® 29213, growth inhibition ranged from 0% to 140% and 0% to 98%, respectively (Table 1).
as §2

[5] = system: E. coli ATCC® 8739; format: cell-based, Escherichia coli; details: CLSI broth microdilution, Mueller-Hinton broth, peptide 30 µM, ~6 × 10^6 CFU/mL, 24 h 37 °C, OD600; triplicate, three independent assays; NA = no activity
Method: as §3, §2

[6] = system: S. aureus ATCC® 29213; format: cell-based, Staphylococcus aureus; details: for MIC: 1.56–200 µM, 24 h 37 °C, visual inspection, triplicate, three independent assays; for IC50: growth inhibition OD600, 95% confidence interval in parentheses
Method: as §1, §2

[7] = system: P. aeruginosa ATCC® 9027; format: cell-based, Pseudomonas aeruginosa; details: for MIC: 1.56–200 µM, 24 h 37 °C, visual inspection, triplicate, three independent assays; for IC50: growth inhibition OD600, 95% confidence interval in parentheses; for MBC: plating on Mueller-Hinton agar, absence of growth
Method: as §1, §2

[8] = system: S. aureus ATCC® 29213; format: cell-based, Staphylococcus aureus; details: CLSI broth microdilution, Mueller-Hinton broth, peptide 30 µM, ~6 × 10^6 CFU/mL, 24 h 37 °C, OD600; triplicate, three independent assays; NA = no activity
Method: as §3, §2

[9] = system: S. aureus ATCC® 6538; format: cell-based, Staphylococcus aureus; details: CLSI broth microdilution, Mueller-Hinton broth, peptide 30 µM, ~6 × 10^6 CFU/mL, 24 h 37 °C, OD600; triplicate, three independent assays; NA = no activity
Method: as §3, §2

[10] = growth inhibition OD600, interpolated from regression, 95% confidence interval in parentheses, read-out: IC50

| Compound | IC50 ([1]; Klebsiella pneumoniae, with PvAMP66 9.85 µM, read-out: combined IC50 for gentamicin) | combined MIC, gentamicin ([1]; with 12.50 µM PvAMP66) | IC50 ([2]; Klebsiella pneumoniae) | MIC ([2]; Klebsiella pneumoniae, MDR K. pneumoniae clinical isolate) | Classification at 10^6 CFU/mL ([2]; MDR K. pneumoniae clinical isolate, CLSI classification) | MIC ([2]; MDR K. pneumoniae clinical isolate, peptides 1.56–200 µM, antibiotics 1.56–100 µM, 24 h 37 °C) | MIC [3] | IC50 [3, 10] | MBC [3] | E. coli ATCC® 25922 (Inhibition %) [4] | E. coli ATCC® 8739 (Inhibition %) [5] | MIC [6] | MBC ([6]; plating on Mueller-Hinton agar, absence of growth) | MIC [7] | IC50 [7] | MBC [7] | S. aureus ATCC® 29213 (Inhibition %) [8] | S. aureus ATCC® 6538 (Inhibition %) [9] | IC50 [6] | IC50 ([3]; same result in µg/mL) |
| --- | --- | --- | --- | --- | --- | --- | --- | --- | --- | --- | --- | --- | --- | --- | --- | --- | --- | --- | --- | --- |
| CNC(C)C1CCC(N)C(OC2C(N)CC(N)C(OC3OCC(C)(O)C(NC)C3O)C2O)O1 (centres unmarked) [Gentamicin, gentamicin] | 3.12 µM | 4.70 µM | 33.4 µM | 9.31 mg/L | Intermediate resistant | 50.00 µM |  |  |  |  |  |  |  |  |  |  |  |  |  |  |
| CRKLCFRNRCLTYCRGR-NH2 (disulfide (positions not given here)) [PvAMP172, predicted P. verdolaga AMP] |  |  |  |  |  |  | 50 µM | 42.9 µM | 50 µM | 47.43 ± 2.76 % | 64.78 ± 5.46 % | 100 µM | 100 µM | 50 µM | 48.4 µM | 50 µM |  |  |  |  |
| IIKKIWK-NH2 [PvAMP32] |  |  |  |  |  |  | 100 µM | 94.7 µM | 100 µM | 21.19 ± 3.82 % | 30.73 ± 5.21 % | 50 µM |  | 100 µM | 124 µM | 100 µM | 33.17 ± 8.46 % | 43.62 ± 4.90 % | 108 µM |  |
| QCRKLCFRNRCLTYCRGR-NH2 (disulfide (positions not given here)) [PvAMP177, predicted P. verdolaga AMP] |  |  |  |  |  |  | 25 µM | 25.3 µM | 50 µM | 56.76 ± 3.64 % | 93.07 ± 7.11 % |  |  | 50 µM | 25.9 µM | 50 µM |  |  | 138 µM | 6.64 mg/L |
